Assay results published in patent publication US20120129875A1, “SUBSTITUTED QUINAZOLINES AS FUNGICIDES” (SYNGENTA CROP PROTECTION, LLC, priority 2009, published 2012).

How the values were obtained:
Assay type in all cases: in vivo
[1] = tested on: Pyrenophora teres (Helminthosporium teres); experiment: Pyrenophora teres (Helminthosporium teres) / barley / preventative (net blotch on barley); settings: barley plants cv. Regina, inoculated 2 days after application, vs untreated control, read-out: disease control
Experimental: Pyrenophora teres (Helminthosporium teres)/Barley/Preventative (Net Blotch on Barley) 1-week old barley plants cv. Regina are treated with the formulated test compound in a spray chamber. The test plants are inoculated by spraying them with a spore suspension 2 days after application. The inoculated test plants are incubated at 20° C. and 95% rh and the percentage leaf area covered by disease is assessed when an appropriate level of disease appears on untreated check plants (5-7 days after application).

Alternaria solani = Alternaria solani / tomato / preventative (Alternaria on tomato); settings: tomato plants cv. Roter Gnom, inoculated two days after application, vs untreated control, read-out: disease control
Experimental: (§1) Alternaria solani/Tomato/Preventative (Alternaria on Tomato) 4-week old tomato plants cv. Roter Gnom are treated with the formulated test compound in a spray chamber. The test plants are inoculated by spraying them with a spore suspension two days after application. The inoculated test plants are incubated at 22/18° C. (day/night) and 95% rh in a greenhouse and the percentage leaf area covered by disease is assessed when an appropriate level of disease appears on untreated check plants (5-7 days after application).

Plasmopara viticola = Plasmopara viticola / grape / preventative (grape downy mildew); settings: grape seedlings cv. Gutedel, inoculated one day after application, vs untreated control, read-out: disease control
Experimental: Plasmopara viticola/Grape/Preventative (Grape Downy Mildew)
5-week old grape seedlings cv. Gutedel are treated with the formulated test compound in a spray chamber. The test plants are inoculated by spraying a sporangia suspension on their lower leaf surface one day after application. The inoculated test plants are incubated at 22° C. and 100% rh in a greenhouse and the percentage leaf area covered by disease is assessed when an appropriate level of disease appears on untreated check plants (6-8 days after application).

[2] = tested on: Mycosphaerella arachidis (Cercospora arachidicola); experiment: Mycosphaerella arachidis (Cercospora arachidicola) / peanut / preventative; settings: peanut plants cv. Georgia Green, inoculated one day after application, vs untreated control, read-out: disease control
Experimental: Mycosphaerella arachidis (Cercospora arachidicola)/Peanut/Preventative 3-week old peanut plants cv. Georgia Green are treated with the formulated test compound in a spray chamber. The test plants are inoculated by spraying them with a spore suspension on their lower leaf surface one day after application. After an incubation period of 4 days under a plastic hood at 23° C. and 100% rh, the test plants are kept at 23° C./20° C. (day/night) and 70% rh in a greenhouse. The percentage leaf area covered by disease is assessed when an appropriate level of disease appears on untreated check plants (12-14 days after application).

[3] = tested on: Phaeosphaeria nodorum (Septoria nodorum); experiment: Phaeosphaeria nodorum (Septoria nodorum) / wheat / leaf disc preventative (glume blotch); settings: Parastagonospora nodorum, foliar, wheat leaf segments cv. Kanzler on agar, inoculated 2 days after application, vs untreated control, read-out: disease control
Experimental: Phaeosphaeria nodorum (Septoria nodorum)/Wheat/Leaf Disc Preventative (Glume Blotch) Wheat leaf segments cv. Kanzler are placed on agar in a multiwell plate (24-well format) and sprayed with the formulated test compound diluted in water. The leaf disks are inoculated with a spore suspension of the fungus 2 days after application. The inoculated test leaf disks are incubated at 20° C. and 75% rh under a light regime of 12 h light/12 h darkness in a climate cabinet and the activity of a compound is assessed as percent disease control compared to untreated when an appropriate level of disease damage appears in untreated check leaf disks (5-7 days after application).

[4] = tested on: Botryotinia fuckeliana (Botrytis cinerea); experiment: Botryotinia fuckeliana (Botrytis cinerea) / tomato / preventative (Botrytis on tomato); settings: tomato plants cv. Roter Gnom, inoculated two days after application, vs untreated control, read-out: disease control
Experimental: as §1, with “Botryotinia fuckeliana (Botrytis cinerea)/Tomato/Preventative (Botrytis” for “Alternaria solani/Tomato/Preventative (Alternaria”, “20°” for “22/18°”, “C.” for “C. (day/night)”, “(5-6” for “(5-7”

Structure (SMILES) | pest or weed control at 200 ppm [1] [%] | pest or weed control at 200 ppm (Alternaria solani) [%] | pest or weed control at 200 ppm (Plasmopara viticola) [%] | also measured
Cc1cccc(-c2cccc(-c3ncc4ccccc4n3)n2)c1 [2/3] | ≥ 80 | ≥ 80 | ≥ 80 | –
Cc1ccccc1-c1cccc(-c2ncc3ccccc3n2)n1 [2/4] | – | ≥ 80 | – | –
Cc1cccc(-c2cccc(-c3ncc4ccccc4n3)n2)c1C [2/9] | ≥ 80 | ≥ 80 | ≥ 80 | –
COc1ccccc1-c1cccc(-c2ncc3ccccc3n2)n1 [2/15] | – | ≥ 80 | – | –
Brc1ccccc1-c1cccc(-c2ncc3ccccc3n2)n1 [2/26] | – | – | ≥ 80 | pest or weed control at 200 ppm [2]: ≥ 80%
Fc1ccc(-c2cccc(-c3ncc4ccccc4n3)n2)c(F)c1 [2/28] | ≥ 80 | ≥ 80 | ≥ 80 | –
CCOc1ccccc1-c1cccc(-c2ncc3ccccc3n2)n1 [2/30] | – | ≥ 80 | ≥ 80 | –
COc1ccc(F)cc1-c1cccc(-c2ncc3ccccc3n2)n1 [2/32] | ≥ 80 | ≥ 80 | – | –
COc1ccc(-c2cccc(-c3ncc4ccccc4n3)n2)c(OC)c1 [2/33] | – | ≥ 80 | – | –
COc1ccc(C)cc1-c1cccc(-c2ncc3ccccc3n2)n1 [2/38] | – | ≥ 80 | – | pest or weed control at 200 ppm [3]: ≥ 80%
COc1ccc(OC)c(-c2cccc(-c3ncc4ccccc4n3)n2)c1 [2/46] | – | ≥ 80 | ≥ 80 | –
COc1ccc(-c2cccc(-c3ncc4ccccc4n3)n2)c(C)c1 [2/66] | – | ≥ 80 | – | pest or weed control at 200 ppm [3]: ≥ 80%
COc1cccc(F)c1-c1cccc(-c2ncc3ccccc3n2)n1 [2/70] | – | ≥ 80 | ≥ 80 | –
Cc1ccc(F)c(-c2cccc(-c3ncc4ccccc4n3)n2)c1 [2/79] | – | – | ≥ 80 | –
COc1cc(F)ccc1-c1cccc(-c2ncc3ccccc3n2)n1 [2/90] | ≥ 80 | ≥ 80 | ≥ 80 | –
Cc1ccc(-c2cccc(-c3ncc4ccccc4n3)n2)c(C)c1 [2/94] | – | ≥ 80 | ≥ 80 | –
Cc1ccc(-c2nc(-c3ncc4ccccc4n3)ccc2C)cc1C [3/11] | – | ≥ 80 | ≥ 80 | –
Cc1cc(F)ccc1-c1nc(-c2ncc3ccccc3n2)ccc1C [3/17] | – | ≥ 80 | – | –
Cc1ccc(-c2ncc3ccccc3n2)nc1-c1ccccc1Br [3/36] | – | ≥ 80 | ≥ 80 | pest or weed control at 200 ppm [4]: ≥ 80%
CCc1ccccc1-c1nc(-c2ncc3ccccc3n2)ccc1C [3/37] | – | ≥ 80 | ≥ 80 | –
Cc1ccc(-c2ncc3ccccc3n2)nc1-c1ccccc1Cl [3/46] | – | ≥ 80 | ≥ 80 | pest or weed control at 200 ppm [2]: ≥ 80%
COc1ccc(F)c(-c2nc(-c3ncc4ccccc4n3)ccc2C)c1 [3/56] | – | ≥ 80 | ≥ 80 | pest or weed control at 200 ppm [2]: ≥ 80%
Cc1ccc(-c2nc(-c3ncc4ccccc4n3)ccc2C)cc1 [3/69] | ≥ 80 | – | ≥ 80 | pest or weed control at 200 ppm [4]: ≥ 80%
COc1ccc(-c2nc(-c3ncc4ccccc4n3)ccc2C)cc1 [3/70] | ≥ 80 | ≥ 80 | – | –
Cc1ccc(-c2ncc3ccccc3n2)nc1-c1cc(Cl)cc(Cl)c1 [3/73] | ≥ 80 | – | ≥ 80 | –
COc1cccc(-c2nc(-c3ncc4ccccc4n3)ccc2C)c1 [3/84] | ≥ 80 | ≥ 80 | ≥ 80 | –
Cc1cc(C)cc(-c2nc(-c3ncc4ccccc4n3)ccc2C)c1 [3/86] | ≥ 80 | ≥ 80 | ≥ 80 | –
COc1ccc(Cl)cc1-c1nc(-c2ncc3ccccc3n2)ccc1C [3/95] | ≥ 80 | ≥ 80 | ≥ 80 | –

Structure (SMILES) | pest or weed control at 200 ppm [1] [%] | pest or weed control at 200 ppm (Alternaria solani) [%] | pest or weed control at 200 ppm (Plasmopara viticola) [%] | also measured
c1cc(Oc2ccc3ccccc3c2)nc(-c2ncc3ccccc3n2)c1 [4/10] | – | ≥ 80 | ≥ 80 | –
COc1ccccc1Oc1cccc(-c2ncc3ccccc3n2)n1 [4/15] | ≥ 80 | – | – | –
Cc1ccccc1Oc1cccc(-c2ncc3ccccc3n2)n1 [4/22, 2-(6-o-tolyloxypyridin-2-yl)-quinazoline] | ≥ 80 | ≥ 80 | ≥ 80 | –
Clc1ccccc1Oc1cccc(-c2ncc3ccccc3n2)n1 [4/23] | ≥ 80 | – | – | –
CSc1ccc(Oc2nc(-c3ncc4ccccc4n3)ccc2C)cc1 [5/4] | – | ≥ 80 | ≥ 80 | –
Cc1ccc(-c2ncc3ccccc3n2)nc1Oc1cccc2ccccc12 [5/13] | ≥ 80 | ≥ 80 | – | –
Cc1ccc(Oc2nc(-c3ncc4ccccc4n3)ccc2C)cc1 [5/17] | – | – | ≥ 80 | pest or weed control at 200 ppm [2]: ≥ 80%
Cc1ccc(-c2ncc3ccccc3n2)nc1Cc1ccc(Cl)cc1 [7/18] | ≥ 80 | ≥ 80 | – | –
Cc1ccc(-c2ncc3ccccc3n2)nc1Cc1ccccc1Cl [7/19] | – | – | ≥ 80 | pest or weed control at 200 ppm [4]: ≥ 80%
COc1cccc(Sc2cccc(-c3ncc4ccccc4n3)n2)c1 [9/2] | ≥ 80 | ≥ 80 | ≥ 80 | –
Fc1ccc(Sc2cccc(-c3ncc4ccccc4n3)n2)cc1 [9/4] | ≥ 80 | ≥ 80 | – | –
Cc1ccc(-c2ncc3ccccc3n2)nc1Sc1ccccc1 [9/6] | ≥ 80 | ≥ 80 | – | –
Cc1ccc(-c2ncc3ccccc3n2)nc1Sc1ccccc1Cl [9/7] | ≥ 80 | ≥ 80 | – | –
Clc1ccccc1Sc1cccc(-c2ncc3ccccc3n2)n1 [9/8] | ≥ 80 | ≥ 80 | – | –
Cc1ccc(-c2ncc3ccccc3n2)nc1C [10/3] | – | – | ≥ 80 | –
Cc1ccc(-c2ncc3cc(N)ccc3n2)nc1-c1ccccc1 [11/2] | – | – | ≥ 80 | –
Cc1ccc2nc(-c3ccc(C)c(-c4ccccc4)n3)ncc2c1 [11/4] | ≥ 80 | ≥ 80 | – | –
Cc1ccc(-c2ncc3cc(Cl)ccc3n2)nc1-c1ccccc1 [11/5] | ≥ 80 | – | ≥ 80 | –
CC(C)Oc1nc(-c2cccc(Cc3ccccc3)n2)nc2ccccc12 [12/9] | – | – | – | pest or weed control at 200 ppm [3]: ≥ 80%
COCCOc1nc(-c2cccc(Cc3ccccc3)n2)nc2ccccc12 [12/10] | – | – | – | pest or weed control at 200 ppm [3]: ≥ 80%
CCCc1nc(-c2cccc(C(Cc3ccccc3)c3ccccc3)n2)nc2ccccc12 (stereo not drawn) [12/13] | – | – | – | pest or weed control at 200 ppm [3]: ≥ 80%
CCc1nc(-c2cccc(Cc3ccccc3)n2)nc2ccccc12 [12/15] | – | – | – | pest or weed control at 200 ppm [3]: ≥ 80%
OCc1nc(-c2cccc(Cc3ccccc3)n2)nc2ccccc12 [12/16] | – | – | – | pest or weed control at 200 ppm [3]: ≥ 80%
COc1ccc(-c2ncc3ccccc3n2)nc1-c1ccc(C)cc1 [14/2] | – | – | – | pest or weed control at 200 ppm [3]: ≥ 80%
COc1ccc(-c2nc(-c3ncc4ccccc4n3)ccc2OC)cc1 [14/3] | – | – | – | pest or weed control at 200 ppm [3]: ≥ 80%
COc1ccc(-c2ncc3ccccc3n2)nc1-c1ccccc1 [14/4] | – | – | – | pest or weed control at 200 ppm [3]: ≥ 80%
COc1ccc(-c2ncc3ccccc3n2)nc1-c1ccc(F)cc1 [14/5] | – | – | – | pest or weed control at 200 ppm [3]: ≥ 80%
